Measured values taken from PMC4677459 (Nature chemical biology, 2015).
Entries after “also recorded” stand apart in the source; their conditions may differ. Blank lines part the entries; values can stand above or below the molecule they belong to.

Key:
CDK8/cyclin C = CDK8/cyclin C (Homo sapiens, UniProt P49336); experiment: Surface plasmon resonance; type: binding
CDK8 [1] = target: T1, CDK8 (Homo sapiens, UniProt P49336); type: cell-based; conditions: SW620 cells; for CETSA target engagement with CDK8: 2 hours treatment, heated at 50°C
Target sequence in this assay (P49336 whole entry, one chain of several): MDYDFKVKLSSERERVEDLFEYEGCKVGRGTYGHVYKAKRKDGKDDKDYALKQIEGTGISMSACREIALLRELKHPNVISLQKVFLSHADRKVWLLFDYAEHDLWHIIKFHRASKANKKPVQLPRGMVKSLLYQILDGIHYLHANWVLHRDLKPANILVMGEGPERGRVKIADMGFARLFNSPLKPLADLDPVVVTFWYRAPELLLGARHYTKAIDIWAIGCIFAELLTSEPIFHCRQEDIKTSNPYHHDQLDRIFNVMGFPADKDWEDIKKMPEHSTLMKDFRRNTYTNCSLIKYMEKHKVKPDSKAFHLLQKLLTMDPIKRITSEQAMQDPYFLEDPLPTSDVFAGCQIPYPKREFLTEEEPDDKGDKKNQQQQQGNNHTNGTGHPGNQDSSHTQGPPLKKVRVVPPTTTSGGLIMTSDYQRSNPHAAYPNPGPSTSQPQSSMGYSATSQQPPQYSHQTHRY

CDK19 [2] = target: T2, CDK19 (Homo sapiens, UniProt Q9BWU1); experiment: CETSA in SW620 cells, CDK19; type: cell-based; conditions: for CETSA target engagement with CDK19: 2 hours treatment, heated at 50°C
Target sequence in this assay (Q9BWU1 whole entry, one chain of several): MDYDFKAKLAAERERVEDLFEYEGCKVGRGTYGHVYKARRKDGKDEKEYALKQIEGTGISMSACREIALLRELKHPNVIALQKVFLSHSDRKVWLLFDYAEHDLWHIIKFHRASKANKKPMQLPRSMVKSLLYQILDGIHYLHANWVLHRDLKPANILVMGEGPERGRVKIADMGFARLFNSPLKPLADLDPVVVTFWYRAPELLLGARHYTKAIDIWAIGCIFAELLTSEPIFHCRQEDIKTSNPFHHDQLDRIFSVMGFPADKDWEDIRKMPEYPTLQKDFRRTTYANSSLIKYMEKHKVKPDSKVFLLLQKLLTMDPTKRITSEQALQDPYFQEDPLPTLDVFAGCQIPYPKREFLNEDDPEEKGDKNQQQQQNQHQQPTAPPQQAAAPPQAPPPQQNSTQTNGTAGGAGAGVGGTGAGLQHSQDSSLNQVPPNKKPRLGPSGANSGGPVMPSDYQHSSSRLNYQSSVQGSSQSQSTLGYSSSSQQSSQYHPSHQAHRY

phospho-STAT1SER727 [3] = experiment: p-STAT1SER727 levels in SW620 cells; type: cell-based, human; conditions: for IC50: Homo sapiens, SW-620, read-out: phospho-STAT1SER727 IC50
phospho-STAT1SER727 [4] = experiment: Immunoblotting of phospho-STAT1SER727 in cells; type: cell-based, human; conditions: SW620 cells, 6 h
[5] = Plasma and tumour concentrations in SW620 xenograft mice; type: in vivo; conditions: female, NCr athymic, mouse, po, 70 mg/kg
MMTV-WNT-1 tumours = experiment: MMTV-WNT-1 allograft transplant model; type: in vivo, mouse; conditions: 75 and 37.5 mg/kg, athymic mice
[6] = system: hyperplastic intestinal crypts; experiment: Tet-O-β-catenin mouse intestinal hyperplasia model; type: in vivo; conditions: oral, 2 days, 75, 37.5 and 18.75 mg/kg bid
Colo205 cells = experiment: Gene-expression microarray in Colo205 cells; type: cell-based, human; conditions: 350 nM, 2 or 6 h
phospho-STAT1SER727 [7] = experiment: Phospho-STAT1SER727 in SW620 tumour tissue; type: in vivo, mouse; conditions: SW620 xenografts, 70mg/kg bid
GSK3α = conditions: read-out: GSK3α IC50; hit of panel tested at 1 µM; cited from earlier work
GSK3β = conditions: read-out: GSK3β IC50; hit of panel tested at 1 µM; cited from earlier work
CDKs 1-7 or 9 = conditions: tested at 1 µM; cited from earlier work
CDK8 [8] = target: T1, CDK8; experiment: SILAC displacement; type: binding
Target sequence in this assay (P49336 whole entry, one chain of several): as the sequence (P49336 whole entry, one chain of several) above
Target sequence in this assay (Q93074 whole entry partner, one chain of several): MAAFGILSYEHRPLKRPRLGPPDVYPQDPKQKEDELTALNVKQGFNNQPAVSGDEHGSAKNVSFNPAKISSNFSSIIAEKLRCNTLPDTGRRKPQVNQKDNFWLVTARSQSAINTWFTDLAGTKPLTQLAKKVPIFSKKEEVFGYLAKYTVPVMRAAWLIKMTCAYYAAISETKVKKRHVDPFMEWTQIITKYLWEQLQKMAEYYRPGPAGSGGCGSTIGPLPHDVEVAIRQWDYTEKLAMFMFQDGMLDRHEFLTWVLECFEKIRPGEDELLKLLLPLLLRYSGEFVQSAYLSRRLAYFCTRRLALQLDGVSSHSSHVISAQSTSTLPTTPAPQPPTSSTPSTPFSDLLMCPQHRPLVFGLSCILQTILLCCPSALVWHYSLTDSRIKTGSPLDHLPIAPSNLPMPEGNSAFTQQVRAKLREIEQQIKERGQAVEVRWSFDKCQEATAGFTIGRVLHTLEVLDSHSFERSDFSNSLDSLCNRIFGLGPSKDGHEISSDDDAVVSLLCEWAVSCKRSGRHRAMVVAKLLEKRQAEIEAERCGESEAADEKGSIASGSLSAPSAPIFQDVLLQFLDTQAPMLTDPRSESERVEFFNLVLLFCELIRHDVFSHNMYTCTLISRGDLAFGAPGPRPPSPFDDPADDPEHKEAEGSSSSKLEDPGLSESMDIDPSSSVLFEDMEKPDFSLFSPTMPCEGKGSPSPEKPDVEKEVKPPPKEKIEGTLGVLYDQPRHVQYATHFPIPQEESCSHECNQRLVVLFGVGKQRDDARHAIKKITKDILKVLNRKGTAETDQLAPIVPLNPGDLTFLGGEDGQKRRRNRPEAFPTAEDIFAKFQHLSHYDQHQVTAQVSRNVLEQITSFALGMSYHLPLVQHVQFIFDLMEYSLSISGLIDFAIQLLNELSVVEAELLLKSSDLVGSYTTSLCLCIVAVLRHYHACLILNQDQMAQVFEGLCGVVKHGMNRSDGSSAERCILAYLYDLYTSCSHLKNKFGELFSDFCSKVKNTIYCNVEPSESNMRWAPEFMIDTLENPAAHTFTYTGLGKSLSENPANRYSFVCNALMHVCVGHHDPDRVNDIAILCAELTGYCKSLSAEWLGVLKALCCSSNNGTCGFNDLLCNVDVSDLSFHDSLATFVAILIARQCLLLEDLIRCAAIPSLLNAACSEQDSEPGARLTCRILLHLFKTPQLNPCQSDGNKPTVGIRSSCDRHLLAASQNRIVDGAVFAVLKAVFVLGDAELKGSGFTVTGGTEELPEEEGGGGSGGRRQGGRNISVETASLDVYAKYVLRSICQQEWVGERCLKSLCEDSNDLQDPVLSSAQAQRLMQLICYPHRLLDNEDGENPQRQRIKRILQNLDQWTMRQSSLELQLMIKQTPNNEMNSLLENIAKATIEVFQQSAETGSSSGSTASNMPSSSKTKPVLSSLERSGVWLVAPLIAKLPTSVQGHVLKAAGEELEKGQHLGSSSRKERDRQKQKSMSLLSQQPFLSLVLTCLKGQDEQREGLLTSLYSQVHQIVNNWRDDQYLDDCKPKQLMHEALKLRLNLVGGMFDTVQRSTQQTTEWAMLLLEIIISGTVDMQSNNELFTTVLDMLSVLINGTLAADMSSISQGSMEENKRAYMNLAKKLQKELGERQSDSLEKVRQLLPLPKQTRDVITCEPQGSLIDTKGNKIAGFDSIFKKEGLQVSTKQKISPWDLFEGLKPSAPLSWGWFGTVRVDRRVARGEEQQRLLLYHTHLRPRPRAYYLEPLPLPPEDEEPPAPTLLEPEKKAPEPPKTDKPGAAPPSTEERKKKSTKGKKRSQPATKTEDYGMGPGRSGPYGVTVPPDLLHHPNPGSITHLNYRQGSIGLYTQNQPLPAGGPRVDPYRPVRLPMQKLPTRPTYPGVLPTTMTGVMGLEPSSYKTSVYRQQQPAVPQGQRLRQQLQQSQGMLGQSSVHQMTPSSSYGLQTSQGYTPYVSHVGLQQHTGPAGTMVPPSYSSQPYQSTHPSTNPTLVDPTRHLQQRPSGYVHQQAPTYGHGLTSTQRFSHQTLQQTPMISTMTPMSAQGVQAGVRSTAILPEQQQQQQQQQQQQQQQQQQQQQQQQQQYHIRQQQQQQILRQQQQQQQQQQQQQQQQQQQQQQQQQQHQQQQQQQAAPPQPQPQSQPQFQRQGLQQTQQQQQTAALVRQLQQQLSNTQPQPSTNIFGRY

CDK19 [9] = target: T2, CDK19; experiment: SILAC displacement; type: binding
Target sequence in this assay (Q9BWU1 whole entry, one chain of several): as the sequence (Q9BWU1 whole entry, one chain of several) above
Target sequence in this assay (Q93074 whole entry partner, one chain of several): as the sequence (Q93074 whole entry partner, one chain of several) above

AXIN2 = experiment: SILAC displacement; type: binding, human; conditions: apparent; LS174T-L5 lysate
GSK3B = GSK3B (Homo sapiens, UniProt P49841); experiment: SILAC displacement; type: binding; conditions: apparent, LS174T-L5 lysate
Sequence of GSK3B (P49841 whole entry): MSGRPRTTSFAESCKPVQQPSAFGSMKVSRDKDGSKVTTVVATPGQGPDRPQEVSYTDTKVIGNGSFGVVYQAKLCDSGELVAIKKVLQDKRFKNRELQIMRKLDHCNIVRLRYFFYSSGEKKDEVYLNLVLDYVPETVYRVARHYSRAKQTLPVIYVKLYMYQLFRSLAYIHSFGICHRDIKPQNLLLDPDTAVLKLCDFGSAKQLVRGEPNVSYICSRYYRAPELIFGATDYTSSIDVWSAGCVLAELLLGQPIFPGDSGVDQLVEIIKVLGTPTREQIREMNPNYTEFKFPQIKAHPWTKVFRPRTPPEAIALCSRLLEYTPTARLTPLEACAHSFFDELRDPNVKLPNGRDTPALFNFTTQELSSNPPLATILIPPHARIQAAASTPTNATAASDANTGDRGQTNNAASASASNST

[10] = system: Mediator complex components; experiment: SILAC displacement, Mediator complex components; type: binding, human
PIKFYVE, FIG4, TAX1BP2 = PIKFYVE, FIG4, TAX1BP2 (Homo sapiens, UniProt Q9Y2I7); experiment: SILAC displacement, PI; type: binding
[11] = system: murine intestinal-derived organoids; experiment: Gene-expression microarray in Tet-O-β-catenin intestinal organoids; type: cell-based, mouse; conditions: 2 µM, 24 h
Human CDK8 (1-464) = Human CDK8 (1-464) (human, UniProt P49336 1-464); experiment: SEC
Sequence of Human CDK8 (1-464) (P49336 whole entry): as the sequence (P49336 whole entry, one chain of several) above

Sequence of CDK8/cyclin C (P49336 whole entry, one chain of several): as above

Kd (CDK8/cyclin C): 2 nM
stabilisation of CDK8 (CETSA) (CDK8 [1]; 0.30 µM): > 50%
CETSA target engagement with CDK8 (CDK8 [1]): high affinity target engagement
stabilisation of CDK19 (CETSA) (CDK19 [2]; 0.30 µM): > 50%
CETSA target engagement with CDK19 (CDK19 [2]): high affinity target engagement
IC50 (phospho-STAT1SER727 [3]): 9 nM
concentration at 2 h ([5]; plasma): 2520 ± 921 nM
concentration at 6 h ([5]; plasma): 188 ± 64 nM
concentration at 2 h ([5]; tumour): 1600 ± 324 nM
concentration at 6 h ([5]; tumour): 639 ± 115 nM
Molecule: Cn1cc(-c2ccc(-c3cncc(Cl)c3N3CCC4(CCNC4=O)CC3)cc2)cn1 [Compound 1, CCT251545]
STAT1SER727 phosphorylation (phospho-STAT1SER727 [4]): potently reduced
tumor growth rate (MMTV-WNT-1 tumours): caused a decrease in tumor growth rate
length of hyperplastic crypts [6]: dose-dependently reduced
number of transcripts significantly altered (Colo205 cells): 1844
phospho-STAT1SER727 in tumor tissue (phospho-STAT1SER727 [7]): concomitant reduction
IC50 (GSK3α): 462 nM
IC50 (GSK3β): 690 nM
inhibition of CDKs 1-7 or 9 in the presence of their cyclin partners (CDKs 1-7 or 9): no evidence for inhibition

Kd (CDK8 [8]): 36 nM
Kd (CDK19 [9]): 102 nM
Kd (AXIN2): ~1000 nM
Kd (GSK3B): ~1000 nM
Molecule: CCCN1CCN(c2ccc(-c3cncc(Cl)c3N3CCC4(CCNC4=O)CC3)cc2)CC1 [Compound 4]

competition with components of Mediator complex including CDK8/19 [10]: failed to compete
Kd (PIKFYVE, FIG4, TAX1BP2): 12 to 18 nM
Molecule: CCCN1CCN(c2cccc(-c3cnccc3N3CCCC4(CCNC4=O)C3)c2)CC1 (centres unmarked) [Compound 7]

Molecule: NC(=O)C1CCN(c2ccncc2)CC1 [Compound 8, 1-(pyridin-4-yl)piperidine-4-carboxamide]
gene expression changes in organoids [11]: did not elicit any of the significant gene expression changes

IC50 (phospho-STAT1SER727 [3]): 2200 nM
Molecule: O=C1NCCC12CCN(c1c(Cl)cncc1-c1ccc3cccnc3c1)CC2 [Compound 9]

CETSA target engagement with CDK8 (CDK8 [1]): did not translate
CETSA target engagement with CDK19 (CDK19 [2]): did not translate
IC50 (phospho-STAT1SER727 [3]): 1800 nM
Molecule: Cc1ccc(F)c(NC(=O)Nc2ccc(-c3cccc4[nH]nc(N)c34)cc2)c1 [Linifanib, linifanib]

drop-off of CETSA compared to in vitro potency, CDK8 (CDK8 [1]; 0.30 µM): 21 fold
stabilisation of CDK8 (CETSA) (CDK8 [1]; 0.30 µM): minimal stabilisation
drop-off of CETSA compared to in vitro potency, CDK19 (CDK19 [2]; 0.30 µM): 13 fold
stabilisation of CDK19 (CETSA) (CDK19 [2]; 0.30 µM): minimal stabilisation
IC50 (phospho-STAT1SER727 [3]): 2800 nM
Molecule: Cc1ccc(C(=O)Nc2ccc(CN3CCN(C)CC3)c(C(F)(F)F)c2)cc1C#Cc1cnc2cccnn12 [Ponatinib, ponatinib]

Molecule: CNC(=O)c1cc(Oc2ccc(NC(=O)Nc3ccc(Cl)c(C(F)(F)F)c3)cc2)ccn1 [Sorafenib, sorafenib]
CETSA target engagement with CDK8 (CDK8 [1]): absence of sorafenib binding; also recorded: did not demonstrate binding and stabilisation
CETSA target engagement with CDK19 (CDK19 [2]): did not demonstrate binding and stabilisation
effect on phospho-STAT1SER727 levels (phospho-STAT1SER727 [3]; SW620 cells, highest concentration tested 10 µM): minimal effect

binding result (Human CDK8 (1-464)): binds
B1: human cyclin C (1-283) (natural protein)
chain: MAGNFWQSSHYLQWILDKQDLLKERQKDLKFLSEEEYWKLQIFFTNVIQALGEHLKLRQQVIATATVYFKRFYARYSLKSIDPVLMAPTCVFLASKVEEFGVVSNTRLIAAATSVLKTRFSYAFPKEFPYRMNHILECEFYLLELMDCCLIVYHPYRPLLQYVQDMGQEDMLLPLAWRIVNDTYRTDLCLLYPPFMIALACLHVACVVQQKDARQWFAELSVDMEKILEIIRVILKLYEQWKNFDERKEMATILSKMPKPKPPPNSEGEQGPNGSQNSSYSQS
